Test results from US8546524B2, “Smoothened polypeptides and methods of use” (The United States of America, as represented by the …, priority 2006, dated 2013).
No end group written: not given here. *: point of attachment. Myristoyl = CCCCCCCCCCCCCC(=O)*

Assays:
SK-Mel2 melanoma cells = type: cell-based; settings: for inhibitory activity of third loop peptides: comment on Table 5; for inhibitory activity on SK-Mel2 melanoma cells: 48 hours of exposure, second intracellular loop peptides, comment on Table 4; for IC50: MTT assay, SK-Mel2 melanoma cells, 48 hour exposure, Table 4; for inhibition of proliferation of SK-Mel2 cells: 60 hours exposure, FIG. 6
Experimental: (§1) DU145 prostate cancer cells, PC3 prostate cancer cells, MCF7 breast cancer cells, or Mel-SK-2 melanoma cells (American Type Culture Collection, Manassas, Va.) are inoculated in 96 well plates at 200-400 cells/well density in DMEM medium containing 10% fetal bovine serum and allowed to attach for 24 hours. Cell suspension of 100 μl is used for each well. Polypeptides in 100 μl medium at 2× concentration are added the next day and kept in the CO2 incubator for 48 hours While the polypeptides are added at a final concentration between 1 nM and 10 μM, assays are performed on extra reference plates to determine the cell population density at time 0 (T0). The cells are stained with Promega Non-Radioactive Cell Proliferation Assay Kit (MTT) according to manufacture's protocol. The absorbance of the wells is determined at 544 nm by a FLUOstar/POLARstar® Galaxy MicroplateReader (BMG Labtechnologies GmbH, Germany). The assays are performed on control (C) and test (T) cells. Cellular responses are calculated from the data using the following formula: 100×[(T−T0)/(C−T0)] for T>T0 and 100×[(T−T0)/T0] for T<T0.
(§2) Polypeptides based on the second or third intracellular loop of SMO (SMOi2 or i3 polypeptides) (as shown in Table 1) are synthesized as described in Example 1 and are tested as described in Example 2 using MCF-7 breast cancer cells or SK-Mel2 melanoma cells. The IC50 of each peptide as determined by the MTT assay in SK-Mel2 melanoma cells after 48 hour exposure to the peptide is shown in Tables 4 and 5.
Peptides SMOi2-18 and SMOi2-21 are made as essentially described in Example 1 and tested as described in Example 2 using SK-Mel2 cells. Cells are exposed to polypeptides or peptidomimetics for 60 hours.

[1] = system: MCF-7 breast cancer cells; assay: MTT growth inhibition assay in MCF-7 breast cancer cells; type: cell-based; settings: 48-hour treatment, FIG. 1 / FIG. 3
Experimental: as §1, with “The cells are stained with Promega Non-Radioactive Cell Proliferation Assay Kit (MTT) according to manufacture's protocol.” left out, “The assays are performed on control (C) and test (T) cells.” left out, “T<T0. […]” for “T<T0.”
as §2

[2] = system: gastric adenocarcinoma cells; assay: Growth inhibition of gastric adenocarcinoma cells (viable cell mass); type: cell-based; settings: 5 or 10 μM, FIG. 2
[3] = Critical micelle concentration by WMC-77 fluorescence; type: physicochemical; settings: deionized water, 25° C., WMC-77 0.4 μM
From the text: To monitor the formation of hydrophobic nanoparticles, a fluorescing imidazoacridone compound WMC-77 (5-{3-[4-(aminopropyl)-piperazin-1-yl]-propylamino}-2,10b-diaza-aceanthrylen-6-one) is used (Tarasov et al., Photochem. Photobiol. 78: 313-322 (2003)). Compounds like WMC-77 tend to enhance their intrinsic fluorescence dramatically when entering an amphiphilic environment of biological macromolecules like DNA (Tarasova et al., 2003, supra) or hydrophobic core of typical micelles (Tarasov et al., Photochem. Photobiol. 70: 568-578 (1999)). […] Atmospheric oxygen quenching is found to be unimportant, since similar values of fluorescence intensity from BIAs are obtained before and after nitrogen purging. […] Uncorrected fluorescence emission spectra are obtained at 25° C. on a Single Photon Counting Spectrofluorometer FLUOROMAX®-2 (Horiba Jobin Yvon, Edison, N.J.). […]
The increase of peptide/fluorophore ratio causes the permanent increase of WMC-77 fluorescence emission intensity, leveling of at ˜2 μM. The changes in the fluorescence signal are similar to those observed during transfer of imidazoacridones from aqueous to non-polar media such as organic solvents (Tarasov et al., 1999, supra), to the cores of classic surfactant micelles (Tarasov et al., 1999, supra) or upon binding to DNA (Tarasov et al., 2003, supra). […]

In the case of “PalLFSIKSNHPGLLSEKAASKINETMLR [SMO i3-4]”, the “inhibitory activity of third loop peptides” value (SK-Mel2 melanoma cells) is reported as “significantly less active”.

With Ac-LTYAWHTSFKAL [SMOi2-9] the “inhibitory activity on SK-Mel2 melanoma cells” value (SK-Mel2 melanoma cells) was “significantly reduces the inhibitory activity”.

“Ac-YAWHTSFKALGTTYQPLSGKTSYK- εPal [SMOi2-5]” showed an IC50 (SK-Mel2 melanoma cells) of 1000 ± 100 nM.

In the case of “Pal-LTYAWHTSFKALGTTYQPLSGKTSYK- ε-Pal [SMOi2-23]”, the “inhibitory activity on SK-Mel2 melanoma cells” value (SK-Mel2 melanoma cells) is reported as “most potent inhibitors”.

In the case of “Ac-LTYAWHTSFKALGTTYQPLSGKTSYK- ε-Pal [SMOi2-4]”, the IC50 (SK-Mel2 melanoma cells) is reported as 1000 ± 100 nM.

With PalRGVMTLFSIKSNHPGLLS [SMO i3-8] the “inhibitory activity of third loop peptides” value (SK-Mel2 melanoma cells) was “among the most potent polypeptides tested”.

For Pal-LTYAWHTSFKALGTTYQP [SMOi2-6], the “inhibitory activity on SK-Mel2 melanoma cells” value (SK-Mel2 melanoma cells) was “potent inhibitors”.

Work on “Ac-AKFSTHWAYTLK-εPal (all D-) [SMOi2-17]” yielded an IC50 (SK-Mel2 melanoma cells) of 0.4 ± 0.1 nM.

With VWFVVLTYAWHTSFKAL [SMOi2-14] the “inhibitory activity on SK-Mel2 melanoma cells” value (SK-Mel2 melanoma cells) was “does not overcome the loss of activity” and the IC50 (SK-Mel2 melanoma cells) was > 5000 nM.

In the case of “Ac-LAKFSTHWAYTLK-ε-Pal (all D-) [SMOi2-16]”, the IC50 (SK-Mel2 melanoma cells) is reported as 6 ± 0.5 nM.

For “PalRGVMTLFSIKSNHPGLLSEKAASKINETMLR [SMO i3-1]”, the “inhibition of growth of MCF-7 cells” value [1] was “most significant effect on cell growth”, the “inhibition of growth of gastric adenocarcinoma cells compared with cyclopamine” value [2] was “as well or better than cyclopamine” and the “inhibitory activity of third loop peptides” value (SK-Mel2 melanoma cells) was “among the most potent polypeptides tested”.

With PalLTYAWHTSFKAL (All D) [SMOi2-24] the “inhibitory activity on SK-Mel2 melanoma cells” value (SK-Mel2 melanoma cells) was “most potent inhibitors”.

In the case of SEKAASKINETMLRK-ε-Pal [SMO i3-12], the “inhibitory activity of third loop peptides” value (SK-Mel2 melanoma cells) is reported as “among the most potent polypeptides tested”.

For “Pal-LTYABpaHTSFKAL-Hcy-Biotin [SMOi2-21]”, the “inhibitory activity on SK-Mel2 melanoma cells” value (SK-Mel2 melanoma cells) was “totally abolishes the activity” and the “inhibition of proliferation of SK-Mel2 cells” value (SK-Mel2 melanoma cells) was “even more potent than that of the polypeptide counterpart, SMOi2-8”.

In the case of Pal-LTYAWHTSFKA [SMOi2-11], the “inhibitory activity on SK-Mel2 melanoma cells” value (SK-Mel2 melanoma cells) is reported as “most potent inhibitors”.

In the case of Ac-LLSEKAASKINETMLRK-[…]ε-Pal [SMO i3-6], the “inhibitory activity of third loop peptides” value (SK-Mel2 melanoma cells) is reported as “among the most potent polypeptides tested”.

With PalRGVMTLFSIKSNHPGLLSEKA [SMO i3-2] the “inhibitory activity of third loop peptides” value (SK-Mel2 melanoma cells) was “among the most potent polypeptides tested”.

For Pal-LTYABpaHTSFKAL [SMOi2-18], the “inhibitory activity on SK-Mel2 melanoma cells” value (SK-Mel2 melanoma cells) was “fairly active” and the “inhibition of proliferation of SK-Mel2 cells” value (SK-Mel2 melanoma cells) was “even more potent than that of the polypeptide counterpart, SMOi2-8”.

In the case of Ac-GTTYQPLSGKTSYK-εPal [SMOi2-7], the “inhibitory activity on SK-Mel2 melanoma cells” value (SK-Mel2 melanoma cells) is reported as “potent inhibitors”.

For Pal-LTYAWHTSFK [SMOi2-12], the “inhibitory activity on SK-Mel2 melanoma cells” value (SK-Mel2 melanoma cells) was “most potent inhibitors”.

In the case of Pal-LTYAWHTSFKALGTTYQPLSGKYSY [SMOi2-1], the “inhibition of growth of MCF-7 cells” value [1] is reported as “inhibit the growth of MCF-7 cells” and the “inhibition of growth of gastric adenocarcinoma cells compared with cyclopamine” value [2] is reported as “as well or better than cyclopamine”.

With Myristoyl-LTYAWHTSFKAL [SMOi2-26] the “inhibitory activity on SK-Mel2 melanoma cells” value (SK-Mel2 melanoma cells) was “most potent inhibitors” and the “potency relative to palmitoyl peptide (fold less potent)” value (SK-Mel2 melanoma cells; myristoyl instead of palmitoyl residue) was 2.5 fold.

In the case of WFVVLTYAWHTSFKAL [SMOi2-15], the “inhibitory activity on SK-Mel2 melanoma cells” value (SK-Mel2 melanoma cells) is reported as “does not overcome the loss of activity” and the IC50 (SK-Mel2 melanoma cells) is reported as > 5000 nM.

With “Ac-KFSTHWAYTLK- εPal (all D-) [SMOi2-20]” the “inhibitory activity on SK-Mel2 melanoma cells” value (SK-Mel2 melanoma cells) was “most potent inhibitors” and the IC50 (SK-Mel2 melanoma cells) was 0.3 ± 0.1 nM.

With Pal-LTYAWHTSFKAL [SMOi2-8] the critical micelle concentration [3] was 0.5 to 1 µM and the “inhibitory activity on SK-Mel2 melanoma cells” value (SK-Mel2 melanoma cells) was “most potent inhibitors”.

For Pal-TYAWHTSFKAL [SMOi2-10], the “inhibitory activity on SK-Mel2 melanoma cells” value (SK-Mel2 melanoma cells) was “potent inhibitors”.
